Columns and labels:
[1] = system: Epidermal growth factor receptor (Homo sapiens), P00533 [L861Q]; details: Compound concentration 1000.0 nM
[2] = molecular target: 5-hydroxytryptamine receptor 2B (Homo sapiens) (UniProt P41595); details: Compound concentration 10.0 uM
[3] = molecular target: Serine/threonine-protein kinase Sgk2 (Homo sapiens) (UniProt Q9HBY8); details: Compound concentration 1000.0 nM
[4] = molecular target: SRSF protein kinase 3 (Homo sapiens) (UniProt Q9UPE1); details: Compound concentration 1000.0 nM
SRSF protein kinase 3 (Homo sapiens), sequence (Q9UPE1 whole entry): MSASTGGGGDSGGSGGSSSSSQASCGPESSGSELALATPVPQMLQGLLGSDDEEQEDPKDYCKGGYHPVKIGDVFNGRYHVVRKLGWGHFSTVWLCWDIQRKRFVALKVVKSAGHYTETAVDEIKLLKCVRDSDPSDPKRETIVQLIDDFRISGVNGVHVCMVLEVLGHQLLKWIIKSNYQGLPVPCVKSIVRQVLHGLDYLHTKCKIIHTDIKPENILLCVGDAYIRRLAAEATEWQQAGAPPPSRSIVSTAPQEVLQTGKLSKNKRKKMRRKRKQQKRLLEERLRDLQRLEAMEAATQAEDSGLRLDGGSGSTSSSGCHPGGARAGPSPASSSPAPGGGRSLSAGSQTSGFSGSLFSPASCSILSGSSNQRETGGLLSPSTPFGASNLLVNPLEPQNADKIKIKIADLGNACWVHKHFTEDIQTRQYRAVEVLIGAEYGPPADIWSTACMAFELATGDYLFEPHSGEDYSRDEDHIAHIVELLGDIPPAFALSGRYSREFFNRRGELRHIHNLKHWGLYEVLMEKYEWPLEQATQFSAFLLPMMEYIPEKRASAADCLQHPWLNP

[5] = molecular target: Mitogen-activated protein kinase kinase kinase 3 (Homo sapiens) (UniProt Q99759); details: Compound concentration 1000.0 nM
[6] = molecular target: Epidermal growth factor receptor (Homo sapiens) (UniProt P00533); details: Compound concentration 1000.0 nM
[7] = system: Mast/stem cell growth factor receptor Kit (Homo sapiens), P10721 [V559D,T670I]; details: Compound concentration 1000.0 nM
[8] = molecular target: Ribosomal protein S6 kinase alpha-4 (Homo sapiens) (UniProt O75676); details: Compound concentration 1000.0 nM
Ribosomal protein S6 kinase alpha-4 (Homo sapiens), sequence (O75676 whole entry, looked up): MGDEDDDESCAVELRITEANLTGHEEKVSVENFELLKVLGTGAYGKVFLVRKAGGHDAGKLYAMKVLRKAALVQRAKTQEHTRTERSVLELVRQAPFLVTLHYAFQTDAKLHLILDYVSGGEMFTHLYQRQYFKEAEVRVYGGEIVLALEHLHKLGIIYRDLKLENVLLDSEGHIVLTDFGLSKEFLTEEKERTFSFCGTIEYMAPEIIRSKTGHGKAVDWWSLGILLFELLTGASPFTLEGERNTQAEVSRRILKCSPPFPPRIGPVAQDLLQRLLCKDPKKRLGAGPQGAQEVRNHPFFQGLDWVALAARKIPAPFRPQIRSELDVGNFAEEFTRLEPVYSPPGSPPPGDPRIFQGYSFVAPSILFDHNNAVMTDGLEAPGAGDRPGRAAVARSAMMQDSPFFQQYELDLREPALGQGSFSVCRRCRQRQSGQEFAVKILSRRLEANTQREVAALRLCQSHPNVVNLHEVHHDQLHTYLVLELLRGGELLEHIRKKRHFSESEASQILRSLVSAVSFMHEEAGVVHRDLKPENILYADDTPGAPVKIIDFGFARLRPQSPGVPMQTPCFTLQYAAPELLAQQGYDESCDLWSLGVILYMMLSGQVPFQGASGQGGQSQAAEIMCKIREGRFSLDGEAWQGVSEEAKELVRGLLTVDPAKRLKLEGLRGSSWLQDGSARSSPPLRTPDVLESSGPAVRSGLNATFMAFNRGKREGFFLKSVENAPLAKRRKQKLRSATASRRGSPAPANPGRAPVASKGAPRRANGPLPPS

[9] = molecular target: Serine/threonine-protein kinase D3 (Homo sapiens) (UniProt O94806); details: Compound concentration 1000.0 nM
Serine/threonine-protein kinase D3 (Homo sapiens), sequence (O94806 whole entry): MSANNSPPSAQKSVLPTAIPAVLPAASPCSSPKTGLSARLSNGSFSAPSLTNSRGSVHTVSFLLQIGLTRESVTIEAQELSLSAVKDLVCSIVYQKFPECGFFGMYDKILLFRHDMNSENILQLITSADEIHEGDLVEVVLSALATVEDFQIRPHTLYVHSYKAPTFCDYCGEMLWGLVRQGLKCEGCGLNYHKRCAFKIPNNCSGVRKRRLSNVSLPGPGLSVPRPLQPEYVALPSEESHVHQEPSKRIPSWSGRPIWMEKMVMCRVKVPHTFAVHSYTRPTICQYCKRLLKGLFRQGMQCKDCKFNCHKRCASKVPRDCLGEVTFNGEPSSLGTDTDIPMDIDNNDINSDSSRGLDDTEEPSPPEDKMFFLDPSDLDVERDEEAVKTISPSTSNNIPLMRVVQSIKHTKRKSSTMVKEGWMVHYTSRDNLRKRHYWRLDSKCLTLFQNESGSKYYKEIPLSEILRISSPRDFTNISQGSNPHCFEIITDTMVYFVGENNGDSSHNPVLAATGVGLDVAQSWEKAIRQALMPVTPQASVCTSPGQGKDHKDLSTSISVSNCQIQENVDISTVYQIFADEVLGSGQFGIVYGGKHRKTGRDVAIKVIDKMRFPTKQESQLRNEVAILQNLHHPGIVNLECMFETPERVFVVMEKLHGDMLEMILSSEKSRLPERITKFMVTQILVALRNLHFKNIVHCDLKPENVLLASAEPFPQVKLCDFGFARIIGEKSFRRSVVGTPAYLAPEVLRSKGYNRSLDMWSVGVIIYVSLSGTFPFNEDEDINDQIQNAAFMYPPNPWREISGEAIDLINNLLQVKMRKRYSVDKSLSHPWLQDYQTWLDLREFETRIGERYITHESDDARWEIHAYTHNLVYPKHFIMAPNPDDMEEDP

[10] = system: Tyrosine-protein kinase ABL1 (Homo sapiens), P00519 [F317L]; details: Compound concentration 1000.0 nM
[11] = molecular target: Protein kinase C theta type (Homo sapiens) (UniProt Q04759); details: Compound concentration 1000.0 nM
[12] = molecular target: Serine/threonine-protein kinase Nek11 (Homo sapiens) (UniProt Q8NG66); details: Compound concentration 1000.0 nM
[13] = molecular target: MAP/microtubule affinity-regulating kinase 3 (Homo sapiens) (UniProt P27448); details: Compound concentration 1000.0 nM
[14] = molecular target: Ribosomal protein S6 kinase alpha-4 (Homo sapiens) (UniProt O75676); details: Compound concentration 1000.0 nM; remark: listed apart in the source
[15] = molecular target: AP2-associated protein kinase 1 (Homo sapiens) (UniProt Q2M2I8); details: Compound concentration 1000.0 nM
[16] = molecular target: Serine/threonine-protein kinase 33 (Homo sapiens) (UniProt Q9BYT3); details: Compound concentration 1000.0 nM
Serine/threonine-protein kinase 33 (Homo sapiens), sequence (Q9BYT3 whole entry, looked up): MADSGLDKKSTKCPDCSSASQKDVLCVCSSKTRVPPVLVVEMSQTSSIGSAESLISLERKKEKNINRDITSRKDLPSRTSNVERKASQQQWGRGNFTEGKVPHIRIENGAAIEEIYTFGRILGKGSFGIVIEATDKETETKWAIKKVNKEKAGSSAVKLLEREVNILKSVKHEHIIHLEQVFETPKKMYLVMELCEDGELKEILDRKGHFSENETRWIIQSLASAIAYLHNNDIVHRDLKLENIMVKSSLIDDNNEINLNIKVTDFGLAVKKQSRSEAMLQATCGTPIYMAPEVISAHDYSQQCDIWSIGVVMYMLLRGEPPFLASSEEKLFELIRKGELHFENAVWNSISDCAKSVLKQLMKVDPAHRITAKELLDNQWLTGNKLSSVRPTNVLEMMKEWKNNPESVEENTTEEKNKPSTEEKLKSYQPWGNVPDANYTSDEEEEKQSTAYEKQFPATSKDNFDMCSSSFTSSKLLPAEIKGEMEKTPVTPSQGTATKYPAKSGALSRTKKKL

[17] = molecular target: Fibroblast growth factor receptor 3 (Homo sapiens) (UniProt P22607); details: Compound concentration 1000.0 nM
[18] = molecular target: Serine/threonine-protein kinase pim-1 (Homo sapiens) (UniProt P11309); details: Compound concentration 1000.0 nM
[19] = molecular target: Mitogen-activated protein kinase 13 (Homo sapiens) (UniProt O15264); details: Compound concentration 1000.0 nM
[20] = molecular target: Phosphatidylinositol 4,5-bisphosphate 3-kinase catalytic subunit beta isoform (Homo sapiens) (UniProt P42338); details: Compound concentration 1000.0 nM
Phosphatidylinositol 4,5-bisphosphate 3-kinase catalytic subunit beta isoform (Homo sapiens), sequence (P42338 whole entry, looked up, canonical isoform): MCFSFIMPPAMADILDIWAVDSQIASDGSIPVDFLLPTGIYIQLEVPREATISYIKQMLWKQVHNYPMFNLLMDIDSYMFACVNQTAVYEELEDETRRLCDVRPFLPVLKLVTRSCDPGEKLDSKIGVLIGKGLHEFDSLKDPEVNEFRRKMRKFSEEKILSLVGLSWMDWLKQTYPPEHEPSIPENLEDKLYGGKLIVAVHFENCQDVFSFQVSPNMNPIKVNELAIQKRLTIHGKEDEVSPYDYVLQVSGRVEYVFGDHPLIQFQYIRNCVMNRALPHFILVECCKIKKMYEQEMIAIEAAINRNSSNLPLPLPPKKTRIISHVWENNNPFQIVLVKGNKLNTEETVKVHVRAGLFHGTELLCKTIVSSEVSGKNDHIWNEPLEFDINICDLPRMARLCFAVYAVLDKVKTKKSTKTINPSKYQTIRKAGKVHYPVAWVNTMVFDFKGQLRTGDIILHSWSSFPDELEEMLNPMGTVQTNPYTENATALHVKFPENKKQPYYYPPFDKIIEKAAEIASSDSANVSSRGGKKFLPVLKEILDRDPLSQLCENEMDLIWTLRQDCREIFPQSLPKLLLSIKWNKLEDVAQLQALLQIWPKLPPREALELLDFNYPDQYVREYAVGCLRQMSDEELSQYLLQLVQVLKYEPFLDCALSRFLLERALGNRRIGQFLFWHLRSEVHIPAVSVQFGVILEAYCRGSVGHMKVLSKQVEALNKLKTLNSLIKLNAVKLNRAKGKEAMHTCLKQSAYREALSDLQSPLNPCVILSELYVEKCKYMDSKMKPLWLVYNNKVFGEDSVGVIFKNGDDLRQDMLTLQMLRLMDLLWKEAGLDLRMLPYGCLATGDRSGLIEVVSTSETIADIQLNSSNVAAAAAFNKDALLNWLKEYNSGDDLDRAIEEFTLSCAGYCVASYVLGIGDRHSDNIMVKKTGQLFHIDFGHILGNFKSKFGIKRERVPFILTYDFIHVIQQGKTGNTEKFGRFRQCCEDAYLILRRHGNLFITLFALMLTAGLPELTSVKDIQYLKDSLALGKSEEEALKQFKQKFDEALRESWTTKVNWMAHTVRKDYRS

[21] = molecular target: Hepatocyte growth factor receptor (Homo sapiens) (UniProt P08581); details: Compound concentration 1000.0 nM
[22] = molecular target: Inhibitor of nuclear factor kappa-B kinase subunit alpha (Homo sapiens) (UniProt O15111); details: Compound concentration 1000.0 nM
[23] = molecular target: Bone morphogenetic protein receptor type-1A (Homo sapiens) (UniProt P36894); details: Compound concentration 1000.0 nM
Bone morphogenetic protein receptor type-1A (Homo sapiens), sequence (P36894 whole entry): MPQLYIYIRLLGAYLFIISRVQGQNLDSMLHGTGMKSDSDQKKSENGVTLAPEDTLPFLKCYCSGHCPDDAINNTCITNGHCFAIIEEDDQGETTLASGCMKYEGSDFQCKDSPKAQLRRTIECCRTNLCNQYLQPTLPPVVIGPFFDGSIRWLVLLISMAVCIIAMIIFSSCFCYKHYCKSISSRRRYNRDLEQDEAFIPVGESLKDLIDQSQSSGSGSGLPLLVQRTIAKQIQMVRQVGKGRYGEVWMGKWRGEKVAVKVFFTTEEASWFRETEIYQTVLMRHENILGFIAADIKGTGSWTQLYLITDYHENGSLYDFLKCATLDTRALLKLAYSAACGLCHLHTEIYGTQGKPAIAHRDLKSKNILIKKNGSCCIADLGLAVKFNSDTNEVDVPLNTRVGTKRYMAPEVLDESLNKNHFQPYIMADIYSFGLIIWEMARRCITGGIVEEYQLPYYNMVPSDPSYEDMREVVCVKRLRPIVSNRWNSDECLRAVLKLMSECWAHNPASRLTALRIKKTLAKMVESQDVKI

[24] = molecular target: MAP kinase-interacting serine/threonine-protein kinase 1 (Homo sapiens) (UniProt Q9BUB5); details: Compound concentration 1000.0 nM
[25] = molecular target: Phosphatidylinositol 4-phosphate 5-kinase type-1 alpha (Homo sapiens) (UniProt Q99755); details: Compound concentration 1000.0 nM
[26] = molecular target: Calcium/calmodulin-dependent protein kinase kinase 1 (Homo sapiens) (UniProt Q8N5S9); details: Compound concentration 1000.0 nM
[27] = molecular target: Serine/threonine-protein kinase Nek10 (Homo sapiens) (UniProt Q6ZWH5); details: Compound concentration 1000.0 nM
[28] = molecular target: Bone morphogenetic protein receptor type-2 (Homo sapiens) (UniProt Q13873); details: Compound concentration 1000.0 nM
[29] = system: Phosphatidylinositol 4,5-bisphosphate 3-kinase catalytic subunit alpha isoform (Homo sapiens), P42336 [H1047Y]; details: Compound concentration 1000.0 nM
[30] = molecular target: Mitogen-activated protein kinase 7 (Homo sapiens) (UniProt Q13164); details: Compound concentration 1000.0 nM
[31] = molecular target: GABA-A receptor; anion channel (Rattus norvegicus) (UniProt O09028+P15431+P18506+P18508+P19969+P20236+P23574+P23576+P28471+P28473+P30191+P62813+P63079+P63138+Q91ZM7+Q9ES14); details: Compound concentration 10.0 uM
[32] = species: Rattus norvegicus; details: Compound concentration 10.0 uM
[33] = system: Receptor-type tyrosine-protein kinase FLT3 (Homo sapiens), P36888 [D835H]; details: Compound concentration 1000.0 nM
[34] = molecular target: Tyrosine-protein kinase ABL1 (Homo sapiens) (UniProt P00519); details: Compound concentration 1000.0 nM
[35] = molecular target: Serine/threonine-protein kinase pim-3 (Homo sapiens) (UniProt Q86V86); details: Compound concentration 1000.0 nM
[36] = molecular target: Dual specificity mitogen-activated protein kinase kinase 2 (Homo sapiens) (UniProt P36507); details: Compound concentration 1000.0 nM
Dual specificity mitogen-activated protein kinase kinase 2 (Homo sapiens), sequence (P36507 whole entry): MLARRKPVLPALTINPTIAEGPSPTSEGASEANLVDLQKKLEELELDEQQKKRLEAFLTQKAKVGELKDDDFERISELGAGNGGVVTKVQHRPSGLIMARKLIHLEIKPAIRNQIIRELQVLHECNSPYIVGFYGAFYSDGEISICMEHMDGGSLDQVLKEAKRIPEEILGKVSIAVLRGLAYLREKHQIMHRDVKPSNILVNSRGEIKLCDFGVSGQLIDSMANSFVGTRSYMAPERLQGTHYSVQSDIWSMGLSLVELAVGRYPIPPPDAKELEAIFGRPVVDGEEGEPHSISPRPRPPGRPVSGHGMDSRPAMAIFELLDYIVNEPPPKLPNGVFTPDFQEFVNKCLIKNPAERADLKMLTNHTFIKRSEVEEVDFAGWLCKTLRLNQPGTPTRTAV

[37] = molecular target: Phosphatidylinositol 3-kinase catalytic subunit type 3 (Homo sapiens) (UniProt Q8NEB9); details: Compound concentration 1000.0 nM
[38] = molecular target: Cyclin-dependent kinase 11A (Homo sapiens) (UniProt Q9UQ88); details: Compound concentration 1000.0 nM
[39] = molecular target: Serine/threonine-protein kinase VRK2 (Homo sapiens) (UniProt Q86Y07); details: Compound concentration 1000.0 nM
[40] = molecular target: Ephrin type-B receptor 2 (Homo sapiens) (UniProt P29323); details: Compound concentration 1000.0 nM
[41] = molecular target: Insulin receptor (Homo sapiens) (UniProt P06213); details: Compound concentration 1000.0 nM
[42] = molecular target: Receptor tyrosine-protein kinase erbB-3 (Homo sapiens) (UniProt P21860); details: Compound concentration 1000.0 nM
[43] = molecular target: Dual specificity protein kinase CLK3 (Homo sapiens) (UniProt P49761); details: Compound concentration 1000.0 nM
[44] = molecular target: Serine/threonine-protein kinase PLK2 (Homo sapiens) (UniProt Q9NYY3); details: Compound concentration 1000.0 nM

Which residual activity [1] does the source give for Cn1nc(C(F)(F)F)cc1-c1cnc(N2CCc3cc(S(=O)(=O)Nc4c(F)cc(Cl)cc4F)cc(N4CCCC4=O)c32)nc1 [TP-020] here?
The residual activity was 100%.

What about the inhibition [2] of the same compound?
The inhibition was 24.7%.

What about the residual activity [3] of the same compound?
The residual activity was 100%.

And the residual activity [4]?
The residual activity was 100%.

And the residual activity [5]?
The residual activity was 89%.

What about the residual activity [6] of the same compound?
Its residual activity is 100%.

What about the residual activity [7] of the same compound?
The residual activity was 88%.

And the residual activity [8]?
Its residual activity is 82%.

And the residual activity [9]?
Its residual activity is 100%.

What about the residual activity [10] of the same compound?
The residual activity was 60%.

What about the residual activity [11] of the same compound?
Its residual activity is 100%.

What about the residual activity [12] of the same compound?
The residual activity was 78%.

And the residual activity [13]?
Its residual activity is 12%.

And the residual activity [14]?
Its residual activity is 85%.

And the residual activity [15]?
Its residual activity is 100%.

What about the residual activity [16] of the same compound?
The residual activity was 100%.

What about the residual activity [17] of the same compound?
Its residual activity is 100%.

And the residual activity [18]?
The residual activity was 97%.

And the residual activity [19]?
Its residual activity is 100%.

What about the residual activity [20] of the same compound?
The residual activity was 85%.

And the residual activity [21]?
The residual activity was 100%.

What about the residual activity [22] of the same compound?
Its residual activity is 99%.

What about the residual activity [23] of the same compound?
Its residual activity is 98%.

What about the residual activity [24] of the same compound?
The residual activity was 72%.

And the residual activity [25]?
The residual activity was 100%.

What about the residual activity [26] of the same compound?
Its residual activity is 98%.

What about the residual activity [27] of the same compound?
The residual activity was 80%.

And the residual activity [28]?
Its residual activity is 77%.

And the residual activity [29]?
The residual activity was 76%.

What about the residual activity [30] of the same compound?
The residual activity was 100%.

What about the inhibition [31] of the same compound?
The inhibition was 7.89%.

And the inhibition [32]?
The inhibition was -9.93%.

What about the residual activity [33] of the same compound?
The residual activity was 100%.

What about the residual activity [34] of the same compound?
The residual activity was 95%.

What about the residual activity [35] of the same compound?
Its residual activity is 100%.

And the residual activity [36]?
The residual activity was 84%.

What about the residual activity [37] of the same compound?
Its residual activity is 78%.

What about the residual activity [38] of the same compound?
The residual activity was 100%.

And the residual activity [39]?
Its residual activity is 61%.

What about the residual activity [40] of the same compound?
The residual activity was 100%.

And the residual activity [41]?
Its residual activity is 89%.

And the residual activity [42]?
The residual activity was 93%.

What about the residual activity [43] of the same compound?
The residual activity was 88%.

What about the residual activity [44] of the same compound?
Its residual activity is 91%.

Which results are given for Nc1cnc(N2CCc3cc(S(=O)(=O)Nc4c(F)cc(Cl)cc4F)cc(N4CCCC4=O)c32)nc1?
residual activity [1]: 100%; inhibition [2]: 12.9%; residual activity [3]: 76%; residual activity [4]: 100%; residual activity [5]: 97%; residual activity [6]: 82%; residual activity [7]: 100%; residual activity [8]: 100%; residual activity [9]: 88%; residual activity [10]: 99%; residual activity [11]: 89%; residual activity [12]: 100%; residual activity [13]: 100%; residual activity [14]: 96%; residual activity [15]: 100%; residual activity [16]: 80%; residual activity [17]: 100%; residual activity [18]: 88%; residual activity [19]: 100%; residual activity [20]: 87%; residual activity [21]: 69%; residual activity [22]: 100%; residual activity [23]: 91%; residual activity [24]: 98%; residual activity [25]: 100%; residual activity [26]: 100%; residual activity [27]: 100%; residual activity [28]: 100%; residual activity [29]: 100%; residual activity [30]: 100%; inhibition [31]: 20.5%; inhibition [32]: -2.65%; residual activity [33]: 100%; residual activity [34]: 97%; residual activity [35]: 98%; residual activity [36]: 92%; residual activity [37]: 100%; residual activity [38]: 89%; residual activity [39]: 100%; residual activity [40]: 87%; residual activity [41]: 89%; residual activity [42]: 100%; residual activity [43]: 74%; residual activity [44]: 100%
